Structures can show the parent of a compound that is named as a salt. Where two headings read alike, the source gives them in different places.
Experiments:
[1] = test system: MCF-7 breast cancer cell line; assay: MCF-7 breast cancer cell proliferation assay (cell counting after about 72 hours); assay type: cell-based, human; details: about 72 hours incubation, HCl salts, read-out: IC50 (micromolar scale) MCF-7 breast cancer cell line
Experimental: MCF-7 (ATCC HTB-22) cells, purchased from ATCC (Rockville, Md.), were grown in RPMI medium 1640 with 10% FBS (GIBCO, Grand Island, N.Y.) and 1% Antibiotic-Antimycotic (GIBCO, Grand Island, N.Y.) in an incubator (NUAIRE NU-1500, Plymouth, Minn.) with 5% CO2 and 95% air at about 37° Celsius. Cells were grown as monolayer, doubling time is from about 19 to about 24 hours. The stock solution of the test compound was prepared at 1 mg/ml drug concentration. The stock solution was diluted serially to obtain the desired drug concentrations, of from about 20 to about 200 μg/ml. Plates with twelve wells (5 ml capacity/well) were employed for all the experiments. In a typical experiment, each well contained 1×10^5 initial cells and about 100 μl drug solution in a total volume of about 2 ml media. The final concentrations of compounds were from about 0 to about 100 μg/ml in triplicate sample wells. The plates were incubated at 5% CO2 and 37° C. for about 72 hours. After incubation, cells were washed with PBS 1×, treated by 0.5 ml trypsin-EDTA for about 10 minutes and the cells were suspended by adding about 1.5 ml medium. Cells were counted by using a hemacytometer under a microscope. The data was converted to micromolar concentration using the various molecular weights and represent the mean values and standard errors.
Tables 1-4 illustrate the IC50 (50% inhibitory concentration) values of compounds described in this application against the MCF-7 breast cancer cell line.

[2] = test system: advanced breast cancer; details: cited from earlier work
[3] = test system: breast cancer; details: adjuvant therapy; cited from earlier work
[4] = Table 3, Structure IV compounds group
[5] = Table 2, Structure III compounds group
[6] = Table 1, Structure II compounds group

Molecule	IC50 [1, 4] [µM]	IC50 [1, 5] [µM]	IC50 [1, 6] [µM]	other results
3-[2-pyrrolidinylamino]-ethoxy]-]-Δ^1,3,5(10)-estrien-17-one	10.6			
3-[2-pyrrolidinylamino]-ethoxy]-]-Δ^1,3,5(10)-estrien-17α-ethynyl-17βol		6.4		
CCN(CC)CCOc1ccc2c(c1)CC[C@@H]1[C@@H]2CC[C@]2(C)C(=O)CC[C@@H]12 [3-[2-diethylamino]-ethoxy]-]-Δ^1,3,5(10)-estrien-17-one]	7.5			
C#C[C@]1(O)CC[C@H]2[C@@H]3CCc4cc(OCCN(CC)CC)ccc4[C@H]3CC[C@@]21C [3-[2-diethylamino]-ethoxy]-]-Δ^1,3,5(10)-estrien-17α-ethynyl-17β-ol]		7.3		
CC(C)N(CCOc1ccc2c(c1)CC[C@@H]1[C@@H]2CC[C@]2(C)C(=O)CC[C@@H]12)C(C)C [3-[2-diisopropylamino]-ethoxy]-]-Δ^1,3,5(10)-estrien-17-one]	9.2			
C#CC1(O)CCC2C3CCc4cc(OCCN(C(C)C)C(C)C)ccc4C3CCC21C (stereo not drawn) [3-[2-diisopropylamino]-ethoxy]-]-Δ^1,3,5(10)-estrien-17α-ethynyl-17β-ol]		8.3		
CN(C)CCOc1ccc2c(c1)CC[C@@H]1[C@@H]2CC[C@]2(C)C(=O)CC[C@@H]12 [3-[2-dimethylamino]-ethoxy]-]-Δ^1,3,5(10)-estrien-17-one]	37.8			
C#CC1(O)CCC2C3CCc4cc(OCCN(C)C)ccc4C3CCC21C (stereo not drawn) [3-[2-dimethylamino]-ethoxy]-]-Δ^1,3,5(10)-estrien-17α-ethynyl-17β-ol]		9.1		
C[C@]12CC[C@@H]3c4ccc(OCCN5CCOCC5)cc4CC[C@H]3[C@@H]1CCC2=O [3-[2-morpholinyl]-ethoxy]-]-Δ^1,3,5(10)-estrien-17-one]	20.8			
C#CC1(O)CCC2C3CCc4cc(OCCN5CCOCC5)ccc4C3CCC21C (stereo not drawn) [3-[2-morpholinyl]-ethoxy]-]-Δ^1,3,5(10)-estrien-17α-ethynyl-17β-ol]		21.5		
C[C@]12CC[C@@H]3c4ccc(OCCN5CCCCC5)cc4CC[C@H]3[C@@H]1CCC2=O [3-[2-piperidinyl]-ethoxy]-]-Δ^1,3,5(10)-estrien-17-one]	5.1			
C#CC1(O)CCC2C3CCc4cc(OCCN5CCCCC5)ccc4C3CCC21C (stereo not drawn) [3-[2-piperidinyl]-ethoxy]-]-Δ^1,3,5(10)-estrien-17α-ethynyl-17β-ol]		6.1		
CC/C(=C(\c1ccc(O)cc1)c1ccc(OCCN(C)C)cc1)c1ccccc1 [4-Hydroxytamoxifen HCl salt, Trans-4-Hydroxytamoxifen, reference compound]	10.6	9.5	9	
CCN(CC)CCOc1ccc2c(c1)CC[C@@H]1[C@@H]2CC[C@]2(C)[C@@H](O)CC[C@@H]12 [(17β)-3-[2-diethylamino]-ethoxy]-]-Δ^1,3,5(10)-estrien-17-ol]			8.7	
CC(C)N(CCOc1ccc2c(c1)CC[C@@H]1[C@@H]2CC[C@]2(C)[C@@H](O)CC[C@@H]12)C(C)C [(17β)-3-[2-diisopropylamino]-ethoxy]-]-Δ^1,3,5(10)-estrien-17-ol]			5.6	
CN(C)CCOc1ccc2c(c1)CC[C@@H]1[C@@H]2CC[C@]2(C)[C@@H](O)CC[C@@H]12 [(17β)-3-[2-dimethylamino]-ethoxy]-Δ^1,3,5(10)-estrien-17-ol]			16.2	
C[C@]12CC[C@@H]3c4ccc(OCCN5CCOCC5)cc4CC[C@H]3[C@@H]1CC[C@@H]2O [(17β)-3-[2-morpholinyl]-ethoxy]-]-Δ^1,3,5(10)-estrien-17-ol]			19.8	
C[C@]12CC[C@@H]3c4ccc(OCCN5CCCCC5)cc4CC[C@H]3[C@@H]1CC[C@@H]2O [(17β)-3-[2-piperidinyl]-ethoxy]-]-Δ^1,3,5(10)-estrien-17-ol]			4.1	
C[C@]12CC[C@@H]3c4ccc(OCCN5CCCC5)cc4CC[C@H]3[C@@H]1CC[C@@H]2O [(17β)-3-[2-pyrrolidinylamino]-ethoxy]-]-Δ^1,3,5(10)-estrien-17-ol]			10.8	
CC/C(=C(\c1ccccc1)c1ccc(OCCN(C)C)cc1)c1ccccc1 [tamoxifen]				response rate ([2]; tamoxifen 20 mg/day): 44%
CN(C)CCOc1ccc(/C(=C(/CCCl)c2ccccc2)c2ccccc2)cc1 [toremifene]				response rate ([2]; toremifene 60 mg/day): 50%; response rate ([2]; toremifene 200 mg/day): 48%; reduction in the recurrence of breast cancer [3]: not found to exhibit a statistically significant reduction in the recurrence of breast cancer

Source: patent publication US7687486B2, “Selective estrogen receptor modulators” (Florida Agricultural & Mechanical University, priority 2003, dated 2010)
